Entries after “also recorded” stand apart in the source; their conditions may differ.
What was measured:
P268S/G908R NOD2 = molecular target: T1, P268S/G908R NOD2 (Homo sapiens, UniProt Q9HC29, G908R/P268S); assay: NF-κB reporter assay in HEK293T cells expressing P268S/G908R NOD2; type: cell-based; details: 100 ng/ml MDP
T1 construct: expressed in transfected cells; host or cells: HEK293T
Experimental: (§1) HEK293T cells were transfected with 0.3 μg of pMX-puro expressing normal Nod2 or mutants carrying P268S (SEQ ID NOs:56 (nucleic acid) and 57 (amino acid), P268S/R702W (SEQ ID NOs: 57 (nucleic acid) and 58 (amino acid)), P268S/G908 (SEQ ID NOs: 60 (nucleic acid) and 61 (amino acid)), P268S/L1007fsinsC (SEQ ID NOs: 54 (nucleic acid) and 55 (amino acid)) or empty plasmid (−). Eight hours post-transfection, 100 ng/ml MDP was added to the cultured cells and at 24 hours post-transfection NF-κB activity was determined as described in FIG. 1A. Values represent the normalized mean data ±S.D. of triplicate cultures. The results shown are representative of three separate experiments.

P268S/R702W NOD2 = molecular target: T2, P268S/R702W NOD2 (Homo sapiens, UniProt Q9HC29, P268S/R702W); assay: NF-κB reporter assay in HEK293T cells expressing P268S/R702W NOD2; type: cell-based; details: 100 ng/ml MDP
T2 construct: expressed in transfected cells; host or cells: HEK293T
T2 sequence (Q9HC29 whole entry P268S/R702W): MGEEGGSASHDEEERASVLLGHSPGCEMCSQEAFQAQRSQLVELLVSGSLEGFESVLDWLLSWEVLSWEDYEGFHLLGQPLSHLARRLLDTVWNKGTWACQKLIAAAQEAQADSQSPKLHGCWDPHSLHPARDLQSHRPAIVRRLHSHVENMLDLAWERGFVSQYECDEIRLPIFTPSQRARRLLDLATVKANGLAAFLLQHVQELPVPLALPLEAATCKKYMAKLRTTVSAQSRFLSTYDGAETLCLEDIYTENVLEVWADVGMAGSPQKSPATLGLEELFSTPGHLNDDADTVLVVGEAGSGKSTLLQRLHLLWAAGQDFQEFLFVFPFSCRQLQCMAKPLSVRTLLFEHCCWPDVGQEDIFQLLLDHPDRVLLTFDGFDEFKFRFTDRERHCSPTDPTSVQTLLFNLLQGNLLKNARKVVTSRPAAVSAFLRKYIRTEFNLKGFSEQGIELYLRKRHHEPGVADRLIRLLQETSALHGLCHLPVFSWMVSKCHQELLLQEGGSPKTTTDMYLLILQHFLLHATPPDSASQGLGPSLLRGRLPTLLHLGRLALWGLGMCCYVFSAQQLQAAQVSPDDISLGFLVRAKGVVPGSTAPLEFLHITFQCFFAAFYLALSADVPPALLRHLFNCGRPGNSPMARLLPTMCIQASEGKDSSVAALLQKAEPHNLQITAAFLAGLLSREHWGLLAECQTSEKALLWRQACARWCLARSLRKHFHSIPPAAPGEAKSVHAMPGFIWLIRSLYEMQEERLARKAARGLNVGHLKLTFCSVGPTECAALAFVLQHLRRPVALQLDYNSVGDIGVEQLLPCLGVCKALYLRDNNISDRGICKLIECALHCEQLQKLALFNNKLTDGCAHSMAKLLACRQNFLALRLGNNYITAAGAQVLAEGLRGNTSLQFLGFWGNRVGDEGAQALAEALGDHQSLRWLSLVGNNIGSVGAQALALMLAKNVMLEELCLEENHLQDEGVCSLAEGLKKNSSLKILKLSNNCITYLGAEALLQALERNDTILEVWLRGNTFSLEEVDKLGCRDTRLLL
Experimental: as §1

P268S NOD2 = molecular target: T3, P268S NOD2 (Homo sapiens, UniProt Q9HC29, P268S); assay: NF-κB reporter assay in HEK293T cells expressing P268S NOD2; type: cell-based; details: 100 ng/ml MDP
T3 construct: expressed in transfected cells; host or cells: HEK293T
T3 sequence (Q9HC29 whole entry P268S): as the sequence (Q9HC29 whole entry P268S/R702W) above, with W702R counted along it
Experimental: as §1

Nod2 = molecular target: T4, Nod2 (Homo sapiens, UniProt Q9HC29, R703H); assay: NF-κB reporter assay in HEK293T/HEK293 cells expressing Nod2; type: cell-based
T4 construct: ligated to generate an unique cDNA containing the entire open reading frame of Nod2; expressed in transfected cells; host or cells: HEK293T
T4 sequence (Q9HC29 whole entry R703H): as the sequence (Q9HC29 whole entry P268S/R702W) above, with S268P, W702R, R703H counted along it

A1 mRNA = assay: Quantitative RT-PCR of A1 transcripts in PBMNC; type: cell-based, human; details: LPS 1 μg/ml, MDP 10 ng/ml
Experimental: (§2) FIGS. 20C and D show PBMNC analyzed for expression of IL-1β (C) and A1 (D) transcripts by quantitative RT-PCR.
(§3) Genotyping was performed using a ddNTP primer extension system. Nuclear extracts from LPS-stimulated cells were pre-incubated with antibody specific for p50 subunit of NF-κB to monitor the size of the NF-κB-DNA complex. cDNA was amplified with specific primers for human IL-1β, glyceraldehyde-3-phosphate-dehydrogenase (GAPDH) as described (5) and A1 (5′-[…]-3′ (SEQ ID NO: 53) and 5′-[…]-3′ (SEQ ID NO:54)). The levels of IL-1β and A1 transcripts normalized to that of GAPDH were expressed relative to those in untreated cells that were considered as baseline. Specificity of the desired PCR products was determined by melting curve analysis. Histograms represent the mean ±S.D. of triplicate analyses.
(§4) To further assess NF-κB activation, the mRNA levels of EL-1β and A1, two NF-κB target genes expressed in PBMNC (Cogswell et al., J. Immunol. 153:712 [1994]; Zong et al., Genes Dev. 13:384 [1999]), were evaluated by quantitative real-time polymerase-chain reaction (RT-PCR) analysis. Both IL-1β and A1 mRNA levels were induced by incubation with LPS and MDP in cells from individuals carrying normal or heterozygous NOD2 alleles (FIG. 20C and 20D). […] Thus, PBMNC require the expression of normal NOD2 for their response to MDP but not to LPS.

P268S/L1007fsinsC NOD2 = molecular target: T5, P268S/L1007fsinsC NOD2 (Homo sapiens, UniProt Q9HC29, P268S); assay: NF-κB reporter assay in HEK293T cells expressing P268S/L1007fsinsC NOD2; type: cell-based; details: 100 ng/ml MDP
T5 construct: expressed in transfected cells; host or cells: HEK293T
T5 sequence (Q9HC29 with tags, fused parts or gaps P268S): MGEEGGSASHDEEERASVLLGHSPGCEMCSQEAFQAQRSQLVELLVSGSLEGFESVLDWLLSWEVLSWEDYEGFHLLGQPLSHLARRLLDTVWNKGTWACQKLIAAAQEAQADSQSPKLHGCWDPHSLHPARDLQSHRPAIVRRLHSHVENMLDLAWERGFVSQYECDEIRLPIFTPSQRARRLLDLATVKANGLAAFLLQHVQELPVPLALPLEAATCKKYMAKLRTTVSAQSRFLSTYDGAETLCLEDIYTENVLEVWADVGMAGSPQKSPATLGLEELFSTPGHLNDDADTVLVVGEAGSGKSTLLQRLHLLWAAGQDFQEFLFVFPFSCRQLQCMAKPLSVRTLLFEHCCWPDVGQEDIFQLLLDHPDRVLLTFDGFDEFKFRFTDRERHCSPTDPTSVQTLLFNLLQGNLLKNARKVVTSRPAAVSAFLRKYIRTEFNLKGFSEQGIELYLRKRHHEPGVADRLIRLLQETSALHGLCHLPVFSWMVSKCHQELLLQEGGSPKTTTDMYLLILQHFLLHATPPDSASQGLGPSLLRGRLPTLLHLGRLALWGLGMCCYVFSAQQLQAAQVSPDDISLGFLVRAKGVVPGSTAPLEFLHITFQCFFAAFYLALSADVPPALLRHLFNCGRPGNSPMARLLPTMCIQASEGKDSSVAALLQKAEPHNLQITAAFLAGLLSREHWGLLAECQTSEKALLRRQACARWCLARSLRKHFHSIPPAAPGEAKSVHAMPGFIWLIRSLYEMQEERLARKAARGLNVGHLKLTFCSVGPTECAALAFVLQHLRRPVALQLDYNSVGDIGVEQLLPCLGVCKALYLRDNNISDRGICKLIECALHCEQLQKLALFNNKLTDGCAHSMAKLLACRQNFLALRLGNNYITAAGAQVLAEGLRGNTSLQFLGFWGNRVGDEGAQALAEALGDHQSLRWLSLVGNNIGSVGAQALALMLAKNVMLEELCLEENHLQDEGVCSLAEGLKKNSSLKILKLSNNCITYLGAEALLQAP
Experimental: as §1

IL-1β mRNA = assay: Quantitative RT-PCR of IL-1β transcripts in PBMNC; type: cell-based, human; details: normal or heterozygous NOD2 alleles, LPS 1 μg/ml, MDP 10 ng/ml
Experimental: as §2, §3, §4

NF-κB = NF-κB binding activity by EMSA in nuclear extracts of PBMNC; type: cell-based, human; details: 1 μg/ml LPS from Salmonella typhimurium, 10 ng/ml MDP, 1 hour; for response of PBMNC (NF-κB-DNA complex, EMSA): PBMNC from individuals homozygous for L1007fsinsC
Experimental: as §2, §3
The NOD2 variants associated with Crohn's disease, R702W, G908R and L1007fsinsC, occur on the same haplotype background, which includes the common P268S polymorphism (Hugot et al., Nature 411:599 [2001]; Ogura et al., Nature 411:603 [2001]). To compare the ability of normal and mutant NOD2 proteins to induce NF-κB activity in response to MDP, the NOD2 proteins were expressed in cells and evaluated in a functional assay. […] The role of NOD2 in the recognition of MDP by primary cells from normal and Crohn's disease patients was next determined. A panel of healthy and Crohn's disease individuals were genotyped for the disease-associated NOD2 alleles and two individuals (one without clinical evidence of disease and one individual with Crohn's disease) who were homozygous for the loss-of-function L1007fsinsC mutation were identified (FIG. 20A). The identification of apparently healthy individuals homozygous for L1007fsinsC is expected in that the penetrance of the L1007fsinsC mutation is not complete (Hugot et al., supra; Ogura et al., supra; Hampe et al., Lancet 357:1925 [2001]; Ahmad et al., Gastroenterology 122:854 [2002]). Peripheral blood mononuclear cells (PBMNC) that are known to express NOD2 were isolated, incubated with MDP or LPS and NF-κB activation was assessed in nuclear extracts by an electrophoretic mobility shift assay (EMSA).

T1 sequence (Q9HC29 whole entry P268S/G908R): as the sequence (Q9HC29 whole entry P268S/R702W) above, with W702R, G908R counted along it

## CC(=O)N[C@@H]1[C@@H](O[C@H](C)C(=O)N[C@@H](C)C(=O)N[C@H](CCC(=O)O)C(N)=O)[C@H](O)[C@@H](CO)O[C@H]1O [MDP, MurNAc-L-Ala-D-isoGln]
P268S/G908R NOD2
  NF-κB activation in response to MDP, P268S/G908R variant compared to normal NOD2: greatly reduced levels of NF-κB activation
P268S/R702W NOD2
  NF-κB activation in response to MDP, P268S/R702W variant compared to normal NOD2: greatly reduced levels of NF-κB activation; also recorded: retained some ability to respond
P268S NOD2
  NF-κB activation in response to MDP, P268S NOD2: induced similar levels of NF-κB activation
Nod2; HEK293T cells, 66 ng pMX-puro-NOD2 (FIG. 18B)
  NOD2-dependent stimulation of NF-κB by synthetic muropeptides: induced potent stimulation of NOD2; also recorded: induced Nod2-dependent activation of NF-κB
Nod2; HEK293T cells, 100 ng/ml MDP
  NF-κB activation in response to MDP, normal NOD2: induced similar levels of NF-κB activation
Nod2; HEK293 cells, 0.3 ng pcDNA3-Nod2, MDP 100 ng/ml, sBLP 1000 ng/ml (FIG. 18D)
  stimulation of NOD2 activity: stimulated NOD2 activity
A1 mRNA; homozygous for L1007fsinsC
  A1 mRNA levels: but not MDP
A1 mRNA; normal or heterozygous NOD2 alleles
  A1 mRNA levels: induced
P268S/L1007fsinsC NOD2
  NF-κB activation in response to MDP, P268S/L1007fsinsC variant compared to normal NOD2: greatly reduced levels of NF-κB activation; also recorded: did not respond at all
IL-1β mRNA
  IL-1β mRNA levels: induced
NF-κB; PBMNC from individuals carrying normal or heterozygous NOD2 alleles
  induction of the NF-κB-DNA complex (EMSA): resulted in induction of the NF-κB-DNA complex
NF-κB
  response of PBMNC (NF-κB-DNA complex, EMSA): but not to MDP
NF-κB; listed as muramyl dipeptide
  response of PBMNC (NF-κB-DNA complex, EMSA): defective in their response

From patent US7375086B2, “Modulators of Nod2 signaling” (The Regents of the University of Michigan, priority 2000, dated 2008)
